Active and inactive are the calls of the source. The rule behind the calls is not given here.
biological target: Toxin B (TcdB) glycohydrolase, Clostridioides difficile 630; assay: TcdB glycohydrolase inhibitors, dose response, biochemical, cherry-pick, plate reader (AID 720512); settings: recombinant TcdB glycohydrolase activity, at 19.5 µM (top of the series)

Row | Compound | activity change, negative = inhibition
1 | O=C(C[C@H]1CC[C@H]2[C@@H](COC[C@H](O)CN2C(=O)Nc2ccc(Cl)c(Cl)c2)O1)NCc1ccncc1 | inactive
2 | C=CCNc1n[nH]c(=S)s1 | inactive
3 | C[C@H](CO)N1C[C@H](C)[C@@H](CN(C)C(=O)Nc2ccc(C(F)(F)F)cc2)Oc2c(NS(=O)(=O)c3cn(C)cn3)cccc2C1=O | inactive
4 | COC(=O)C[C@H]1CC[C@@H]2[C@@H](COc3ccc(NC(=O)c4cccc(OC)c4)cc3C(=O)N2C)O1 | inactive
5 | COc1ccc(Cl)cc1NC(=O)CSc1nnc(-c2ccco2)o1 | inactive
6 | S=c1nc(-c2cccc(Cl)c2)[nH][nH]1 | inactive
7 | CC1(C)OC2C(O1)[C@@H](CO)O[C@H]2n1cnc2c(N)ncnc21 (stereo partly specified) | inactive
8 | O=C(C[C@H]1C[C@H]2c3cc(NC(=O)c4ccc5c(c4)OCO5)ccc3O[C@H]2[C@H](CO)O1)NCc1cccc(F)c1 | inactive
9 | CC(=O)Nc1ccc(OC(=O)Oc2ccc(NC(C)=O)cc2)cc1 | inactive
10 | Cn1c(SCc2nnc(-c3ccccc3)o2)nc2ccccc21 | inactive
11 | CCOC(=O)/C=c1/s/c(=C/c2ccc3cc(OC)ccc3c2)c(=O)n1CC(=O)NCC1CCCO1 (stereo unspecified) | inactive
12 | O=C1Nc2ccccc2C1c1ncc(C(F)(F)F)cc1Cl (stereo unspecified) | inactive
13 | O=c1[nH]c2cc(O)ccc2c2ccccc12 | inactive
14 | COC(=O)c1sc2nc(SCc3ccccc3C)n(N)c(=O)c2c1C | inactive
15 | COc1cc(Cn2nnc3ccccc32)ccc1O | inactive
16 | Oc1ccc(-c2nccs2)cc1 | inactive
17 | O=C1/C(=C/c2cccnc2)SC(=NCc2ccccc2)N1Cc1ccccc1 | inactive
18 | Cc1ccc(-c2cc(C(=O)OC3CCOC3=O)c3ccccc3n2)c(C)c1 (stereo unspecified) | inactive
19 | Nc1ccccc1-c1nc2ccncc2[nH]1 | inactive
20 | Cc1cccc(-c2n[nH]c(=S)n2/N=C/C=C/c2ccco2)c1 | inactive
21 | CS(=O)(=O)N(CC(=O)Nc1ccc(S(=O)(=O)N2CCOCC2)cc1)c1ccccc1Br | inactive
22 | O=c1[nH]nc(-c2cc(-c3ccccc3)nc3ccccc23)o1 | inactive
23 | CCSc1nnc(NC(=O)C2CC2c2ccccc2)s1 (stereo unspecified) | inactive

Row | Compound | activity change, negative = inhibition
24 | O=C(CC(=O)N/N=C/c1ccc(O)cc1)N/N=C/c1ccc(O)cc1 | inactive
25 | Cc1cc(=O)oc2c(N)c(O)ccc12 | inactive
26 | COc1ccc(-c2nc3ccc([N+](=O)[O-])cc3[nH]2)cc1 | inactive
27 | COc1ccccc1C=C1SC(=S)NC1=O | inactive
28 | S=C(NCCc1ccccc1)Nc1ncccn1 | inactive
29 | COc1ccc2cc3c(nc2c1)OCC3 | inactive
30 | COc1cc(/C=N/NC(=O)c2c(C)nc3ccc(Cl)cn23)cc(OC)c1OC | inactive
31 | CCC(=O)Nc1ccc2c(c1)OC[C@H](C)N(C(=O)NC(C)C)C[C@@H](C)[C@@H](OC)CN(C)C2=O | inactive
32 | Cc1ccc(S(=O)(=O)Oc2ccccc2/C=C2/SC(=O)NC2=O)cc1 | inactive
33 | Cc1ccc(C)c2sc(NC(=O)c3ccc(N4C(=O)CCC4=O)cc3)nc12 | inactive
34 | COc1ccc(/C=N/n2c(-c3cc(C)[nH]n3)n[nH]c2=S)cc1OC | inactive
35 | CCCCNC(=O)C1CCN(S(=O)(=O)c2c(C)noc2/C=C\c2ccc(OC)cc2)CC1 | inactive
36 | Cc1[nH]c(=O)c(C#N)c2c1CCCC2 | inactive
37 | NS(=O)(=O)c1ccc(CCNC(=O)c2ccc(CS(=O)(=O)c3ccc(Br)cc3)o2)cc1 | inactive
38 | CCCCn1c(N)c(N(CCOC)C(=O)CSc2nnc(-c3ccco3)n2CC)c(=O)[nH]c1=O | inactive
39 | Fc1cccc(NC(=S)NNc2c3ccccc3nc3ccccc23)c1 | inactive
40 | CC(C)Cc1[nH]c(=O)c(C#N)c2c1CCCC2 | inactive
41 | C=CC[C@@H](CC(=O)N(CCO)Cc1ccccc1)C(=O)NC[C@@H](OC(=O)[C@@H](CC=C)CC(=O)OC(C)(C)C)c1ccccc1 | inactive
42 | CC(=O)N(c1ccccc1C)S(=O)(=O)c1ccc(Cl)cc1 | inactive
43 | O=C(O)c1cc(-c2ccccc2Cl)n(-c2cccc(Cl)c2)n1 | inactive
44 | O=[N+]([O-])c1ccc(S(=O)(=O)Nc2nc(-c3ccccc3)cs2)cc1 | inactive
45 | Cc1nn(C)cc1-c1n[nH]c(=S)n1-c1ccc(F)cc1 | inactive
46 | CCOc1ccccc1/C=C/c1onc(C)c1S(=O)(=O)N1CCC(C(=O)N2CCCCCC2)CC1 | inactive

Reference: PubChem BioAssay AID720512 (Broad Institute, 2013)
